Assay results as given in publication PMC11096398, “Chemical and biophysical characterization of novel potassium channel blocker 3-fluoro-5-methylpyridin-4-amine” (Scientific Reports, 2024).
Values joined by “and” are separate entries in the source; they are usually repeats but may differ in a detail not shown here. Equal values may be shown once. Read-outs that look alike come from different tables or passages of the source.

Experiments:
[1] = cited from earlier work
[2] = cited from earlier work; remark: listed apart in the source
[3] = design: method as in PMID 33090071; conditions: monkeys, 2 h post injection ref 26; cited from earlier work
[4] = cited from earlier work; remark: listed apart in the source
[5] = design: method as in PMID 38690718; conditions: 35 min post-injection, cited from earlier work
[6] = parallel artificial membrane permeability assay-blood-brain barrier (BBB) kit; type: in vitro ADME; conditions: PAMPA-BBB; for Papp at 18 h, 500 µM: PBS pH 7.2, 18 h, n = 3, read-out: permeability to an artificial brain membrane (Pe)
Protocol: The permeability rates of 5Me3F4AP and derivatives were determined using parallel artificial membrane permeability assay-blood–brain barrier (BBB) kit (BioAssay systems, Hayward, USA) following the manufacturer’s protocol. Initially, solutions of each test compound were prepared in DMSO at a concentration of 10 mM. These stock solutions along with the stock solutions of control compounds (high control: promazine hydrochloride, low control: diclofenac) were then diluted with PBS (pH = 7.2) to obtain the donor solutions with a final concentration of 500 μM. At the same time, 200 μM of equilibrium standards for each compound and a DMSO blank control solution were prepared.
In the experimental setup, 300 μL of PBS was added to the desired well of the acceptor plate, and 5 μL of BBB lipid solution in dodecane was added to membranes of the donor plate. Next, 200 μL of the donor solutions of each test compound and each permeability control were added to the duplicate wells of the donor plate. The donor plate was carefully placed on the acceptor plate and incubator for 18 h at room temperature. After incubation, UV absorption measurements were conducted using 100 μL of the resulting solutions from the acceptor plate and the equilibrium standards. UV absorption of the controls was measured by running a UV scan in the range of 200–500 nm. UV absorption of 5Me3F4AP and derivatives was measured using HPLC equipped with a UV detector and C18 column.

CYP2E1 = CYP2E1 (Homo sapiens, UniProt P05181); test: competitive CYP2E1 inhibition assay (Vivid CYP2E1 screening kit)
Protocol: The relative metabolic stability towards CYP2E1 was assessed with the competitive CYP2E1 inhibition assay utilizing the life technologies™ vivid® CYP2E1 screening kit, as described in previous studies. In this assay, fluorescence emitted by the metabolic product of a specific CYP2E1 substrate included in the kit, was measured in the absence and presence of substrate competitors.
Afterwards, 50 µL master pre-mix 2× (40 nM) CYP2E1 BACULOSOMES® and 2× (0.6 units/mL) vivid® regeneration system in 1× reaction buffer) was added to each well. The plate was incubated for 10 min at room temperature to allow the compounds to interact with the CYP2E1 in the absence of enzyme turnover. Next, the reaction was initiated by adding 10 µL per well of 10× (100 μM) Vivid® substrate (2H-1-benzopyran-3-carbonitrile,7-(ethoxy-methoxy)-2-oxo-(9Cl)) and 10× (300 μM) Vivid® NADP^+ mixture. Immediately (in less than 2 min), the plate was transferred into the fluorescent plate reader and fluorescence was monitored over 60 min (reads in 1 min intervals) at 415 nm as excitation wavelength and 460 nm as emission wavelength. The obtained reads were plotted using GraphPad Prism 9.
A similar vivid® CYP2E1 assay was conducted as described above. […] The plate fluorescence was monitored over 60 min (reads in 1 min intervals) at 415 nm as excitation wavelength and 460 nm as emission wavelength. The reads at 60 min (recalculated by the linear trend line equation) of each concentration were used and fitted with GraphPad Prism9 dose-response-inhibition (concentration is log) curve fitting with weighting method (weighted by 1/Y^2) to calculate the IC50 values. A similar procedure was used for determining the IC50 of 3F4AP.

[7] = biological target: T1, Shaker voltage-gated potassium channel (Drosophila melanogaster, UniProt P08510); test: cut-open voltage clamp electrophysiology of K+ currents in Xenopus laevis oocytes expressing Shaker; type: cell-based, D. melanogaster
Protocol: Blocking potency of 5Me3F4AP was evaluated on the voltage-gated Shaker (homologous to mammalian Kv1.2) ion channel expressed in Xenopus laevis oocytes, as previously described. Briefly, each oocyte expressing the Shaker channel was voltage-clamped in a cut-open voltage clamp (COVC) station in order to elicit K^+ currents in response to the voltage stimulus protocol, which entailed steps of 50 ms from − 100 to 60 mV in increments of 10 mV. For COVC measurements, the external recording solution was composed (in mM) of 12 KOH, 2 Ca(OH)2, 105 NMDG-MES (N-methyl-D-glucamine)-methylsufonate, 20 HEPES (4-(2-hydroxyethyl)-1-piperazineethanesulfonic acid). The internal recording solution was composed of 120 KOH, 2 EGTA (ethylene glycol-bis(β-aminoethyl ether)-N,N,N,N-tetraacetic acid), and 20 HEPES. […] Each pH solution was adjusted with MES (2-(N-morpholino)ethanesulfonic acid). For measurements at pH = 9.1, HEPES was substituted by CHES (2-(cyclohexylamino)-ethanesulfonic acid). Each oocyte expressing the Shaker ion channel was voltage-clamped to record K^+ currents, first in the absence of 5Me3F4AP, and subsequently with the addition of 5Me3F4AP, from 0.0001 to 10 mM. Relative current (Irel) was quantified as the […] of the indicated concentration of 5Me3F4AP. Finally, K^+ currents were amplified with the oocyte clamp amplifier CA-1A (Dagan Corporation, Minneapolis, MN, USA) and digitized with the USB-1604-HS-2AO Multifunction Card (Measurement Computing, Norton, MA, USA). All systems were controlled with the GpatchMC64 program (department of anesthesiology, UCLA, Los Angeles, CA, USA) via a PC. Electrophysiology recordings were sampled at 100 kHz and filtered at 10 kHz.
Data analysis was performed as previously described. Briefly, the half-maximal inhibitory concentration of 5Me3F4AP (IC50) was determined by fitting the Irel curve to the Hill equation at each value of V and pH.
Mean values of data ± standard deviation (s.d.) are given or plotted and the number of experiments is denoted by n. Upper and lower limits of the 95% of confidence interval (CI95) are denoted as 10^logIC50+s.d and 10^logIC50-s.d , respectively.

[8] = biological target: T1, Shaker voltage-gated potassium channel; conditions: cited from earlier work; for IC50: pH 7.4, Hermann equation, reported previously ref 35, read-out: IC50 (at V=0) ± s.d.; for δ ± s.d. (electric fraction): pH 7.4, reported previously ref 35
[9] = pKa determination by titration with HCl (Gran plot); type: physicochemical; conditions: n = 4
Protocol: The pKa was determined using titration according to our previously described protocol. A 1 mg/mL solution of 5Me3F4AP was prepared, of which 5 ml was titrated with 0.01 M HCl solution beyond the equivalence point. After each incremental addition of titrant, the sample was stirred and the pH reading was taken with a pH meter. The Gran plot of the titration was analyzed to obtain the pKa (see the plot in Supporting Information, Fig. S3). […] The titration was repeated four times each for each compound.

[10] = octanol-water partition coefficient (logD) at pH 7.4; type: physicochemical
Protocol: The octanol–water partition coefficient (logD) at pH 7.4 was determined according to our previous reported protocol. Briefly, PBS (900 μL), 1-octanol (900 μL), and a 10 mg/ mL aqueous solution of each compound (2 μL) were added to a 2 mL HPLC vial. The compounds were partitioned between the layers via vortexing and centrifuged at 1000 g for 1 min to allow for phase separation. A 10 μL portion was taken from each layer (autoinjector was set up to draw volume at two different heights) and analyzed by HPLC. The relative concentration in each phase was determined by integrating the area under each peak and comparing the ratio of the areas from the octanol and aqueous layers. A calibration curve was performed to ensure that the concentrations detected were within the linear range of the detector (see Figs. S1 and S2 in Supporting Information). This procedure was repeated four times for each compound.

[11] = final concentration 25 µM, 60 min kinetic measurement
[12] = compound solution titrated with 0.01 M HCl

T1 sequence (P08510 whole entry): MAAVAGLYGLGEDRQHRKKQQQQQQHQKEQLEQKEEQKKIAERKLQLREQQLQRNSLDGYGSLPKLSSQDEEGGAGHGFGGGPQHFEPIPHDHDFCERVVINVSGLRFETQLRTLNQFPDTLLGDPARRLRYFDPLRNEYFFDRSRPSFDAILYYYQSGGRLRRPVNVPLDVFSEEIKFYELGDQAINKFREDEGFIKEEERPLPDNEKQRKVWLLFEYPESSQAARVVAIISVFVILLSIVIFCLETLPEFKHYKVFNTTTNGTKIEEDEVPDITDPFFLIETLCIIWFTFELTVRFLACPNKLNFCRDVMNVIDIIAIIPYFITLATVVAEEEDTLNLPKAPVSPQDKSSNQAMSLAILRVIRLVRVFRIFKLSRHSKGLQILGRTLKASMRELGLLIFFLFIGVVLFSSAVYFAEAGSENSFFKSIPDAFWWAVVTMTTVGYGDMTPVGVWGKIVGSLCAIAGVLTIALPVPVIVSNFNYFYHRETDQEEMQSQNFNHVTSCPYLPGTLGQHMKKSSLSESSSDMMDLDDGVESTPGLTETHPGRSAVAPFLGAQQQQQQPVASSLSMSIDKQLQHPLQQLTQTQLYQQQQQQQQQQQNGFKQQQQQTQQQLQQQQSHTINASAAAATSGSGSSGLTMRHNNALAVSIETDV
Sequence of CYP2E1 (P05181 whole entry): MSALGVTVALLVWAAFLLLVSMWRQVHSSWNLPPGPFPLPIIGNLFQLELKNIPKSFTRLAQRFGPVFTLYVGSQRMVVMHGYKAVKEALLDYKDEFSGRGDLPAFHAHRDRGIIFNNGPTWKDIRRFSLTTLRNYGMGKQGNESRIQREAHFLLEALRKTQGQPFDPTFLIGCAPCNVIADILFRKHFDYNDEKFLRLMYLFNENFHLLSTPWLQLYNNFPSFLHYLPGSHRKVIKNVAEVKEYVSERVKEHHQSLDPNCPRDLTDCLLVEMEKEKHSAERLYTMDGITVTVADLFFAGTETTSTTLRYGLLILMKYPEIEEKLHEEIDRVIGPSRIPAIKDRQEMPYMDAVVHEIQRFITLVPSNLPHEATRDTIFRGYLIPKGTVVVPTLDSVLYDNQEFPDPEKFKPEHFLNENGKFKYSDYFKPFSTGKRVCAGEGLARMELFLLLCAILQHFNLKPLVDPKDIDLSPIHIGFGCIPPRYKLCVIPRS

Row | SMILES | Papp at 18 h, 500 µM [6] [×10⁻⁶ cm/s] | reduction in fluorogenic emission / reaction rate vs. blank (CYP2E1; [11]) | change of IC50 when pH was increased to 9.1 [7] | δ ± s.d. (electric fraction) [7] | IC50 ([7]; IC50 (at V=0) ± s.d.) | δ ± s.d. (electric fraction) ([7]; pH 9.1) | IC50 [8] [µM] | δ ± s.d. (electric fraction) [8] | pKa [9] | pKa [9, 12] | other results
1 | Nc1ccncc1[18F] [[^18F]3F4AP, [^18F]3-fluoro-4-aminopyridine] | – | – | – | – | – | – | – | – | – | – | pKa [1]: 7.65; plasma parent fraction (PPF) remaining ([2]; humans, 30 min post injection ref 27): < 50%; plasma parent fraction (PPF) [3]: > 90%; logD [4]: 0.41; plasma parent fraction (PPF) ([5]; anesthetized mice (isoflurane), n = 10 ref 29): 74.8 ± 1.6; plasma parent fraction (PPF) ([5]; awake mice, n = 11 ref 29): 17.7 ± 1.7
2 | Nc1ccncc1F [3F4AP, 3-fluoro-4-aminopyridine] | 3.11 ± 0.29 | substantial decrease in rate | increased around three-fold | 0.41 ± 0.03 | 159 µM and 65 µM | 0.52 ± 0.02 | 122 ± 4 | 0.46 ± 0.10 | 7.37 ± 0.07 | – | IC50 (CYP2E1; human, IC50 for CYP2E1 inhibition, reads at 60 min, three replicates): 15.4 ± 5.1 µM
3 | Nc1ccncc1 [4AP, 4-aminopyridine] | – | minor reduction in fluorogenic emission | – | 0.41 ± 0.06 | – | 0.41 ± 0.05 | – | 0.41 ± 0.08 | – | > 9 | parent fraction in plasma ([2]; 24 h post oral administration ref 42): ~ 70%; pKa ([9]; solution of the compound titrated with 0.01 M HCl): 9.19
4 | Cc1cncc(F)c1N [5Me3F4AP, 3-fluoro-5-methylpyridin-4-amine] | 8.81 ± 1.83 | reaction rate between 4AP and 3F4AP | – | – | – | 0.40 ± 0.04 | – | – | 7.46 ± 0.01 | – | permeation rate relative to 3F4AP [6]: approximately three times faster than 3F4AP; IC50 at 60 min (CYP2E1; human, recombinant CYP2E1 BACULOSOMES (Vivid CYP2E1 screening kit), IC50 for CYP2E1 inhibition, reads at 60 min, three replicates): 36.2 ± 2.5 µM; CYP2E1-mediated oxidation rate relative to 3F4AP (CYP2E1; kinetic measurement): about two times slower than 3F4AP; logD ([10]; 1-octanol/PBS, pH 7.4, pH 7.4, n = 4): 0.664 ± 0.005; logD (octanol/water partition coefficient) ([10]; pH 7.4, n = 4): 0.66; block of Shaker K+ currents ([7]; 1 mM, pH 6.4, 7.4 and 9.1): efficiently blocks the channels; Hill parameter h ([7]; Hill fit at 40 mV, all experimental conditions): ≈ 1; change of IC50 when pH was increased to 9.1 ([7]; IC50 at 40 mV, Hill equation): increased around three-fold; δ ± s.d. (electric fraction) ([7]; pH 6.4): 0.39 ± 0.04; IC50 ([7]; pH 6.4, Hermann equation, read-out: IC50 (at V=0) ± s.d.): 118 ± 17 µM; δ ± s.d. (electric fraction) ([7]; pH 7.4): 0.40 ± 0.02; IC50 ([7]; pH 7.4, Hermann equation, read-out: IC50 (at V=0) ± s.d.): 161 ± 25 µM; blocking potency compared with related compounds ([7]; pH 7.4, IC50 at 40 mV): very similar to that of 4AP and 3F4AP; IC50 ([7]; pH 9.1, Hermann equation, read-out: IC50 (at V=0) ± s.d.): 373 ± 84 µM; δ value (electric fraction) ([7]; pH not specified): ~0.4
5 | N[C@@H]1C[C@H]1c1ccccc1 (racemic) [tranylcypromine] | – | – | – | – | – | – | – | – | – | – | reduction in fluorogenic emission / reaction rate vs. blank (CYP2E1): most pronounced reduction in fluorogenic emission
6 | Cc1cnccc1N [3Me4AP, 3-methyl-4AP] | – | – | three-fold | 0.28 ± 0.10 | 44 µM and 10 µM | 0.47 ± 0.03 | 21 ± 1 | 0.43 ± 0.10 | – | > 9 | –
